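Interpolation was linear, between the two tested concentrations surrounding the appropriate level; five concentrations were tested over 48 hours in 96-well plates. GI50 = concentration required for 50% inhibition of growth.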 Activity calls are given as the source filed them. No stated cut-off is given here; in the data, active = GI50 up to about 1.1 µM and inactive = higher.
Tests used:
Test in all cases: NCI-60 cell line screen, 48 h
SK-MEL-5 = test system: SK-MEL-5
BT-549 = test system: BT-549
K562 = test system: K562
SNB-19 = test system: SNB-19
LOX IMVI = test system: LOX IMVI
HCT-116 = test system: HCT-116
NCI-H226 = test system: NCI-H226
NCI-H23 = test system: NCI-H23
IGROV-1 = test system: IGROV-1
A498 = test system: A498
MOLT-4 = test system: MOLT-4
UO-31 = test system: UO-31
DU-145 = test system: DU-145
OVCAR-3 = test system: OVCAR-3
SNB-75 = test system: SNB-75
RXF 393 = test system: RXF 393
NCI/ADR-RES = test system: NCI/ADR-RES
CAKI-1 = test system: CAKI-1
CCRF-CEM = test system: CCRF-CEM
PC-3 = test system: PC-3
UACC-257 = test system: UACC-257
KM12 = test system: KM12
SR = test system: SR
MDA-MB-231 = test system: MDA-MB-231
SF-539 = test system: SF-539
TK-10 = test system: TK-10
MDA-N = test system: MDA-N
SN12C = test system: SN12C
SK-MEL-28 = test system: SK-MEL-28
RPMI-8226 = test system: RPMI-8226
HL-60 = test system: HL-60
Hs-578T = test system: Hs-578T
MDA-MB-435 = test system: MDA-MB-435
SF-295 = test system: SF-295
UACC-62 = test system: UACC-62
HT-29 = test system: HT-29
HOP-92 = test system: HOP-92
EKVX = test system: EKVX
HOP-62 = test system: HOP-62
HCT-15 = test system: HCT-15
T47D = test system: T47D
OVCAR-5 = test system: OVCAR-5
786-0 = test system: 786-0
OVCAR-4 = test system: OVCAR-4
SK-MEL-2 = test system: SK-MEL-2
Malme-3M = test system: Malme-3M
A549 = test system: A549
COLO 205 = test system: COLO 205
NCI-H460 = test system: NCI-H460
M14 = test system: M14
SF-268 = test system: SF-268
OVCAR-8 = test system: OVCAR-8
U-251 = test system: U-251
SK-OV-3 = test system: SK-OV-3
MCF7 = test system: MCF7
SW-620 = test system: SW-620
ACHN = test system: ACHN
NCI-H522 = test system: NCI-H522

Measured: GI50

NC(=S)N/N=C/c1c[nH]c2ccccc12
inactive: SK-MEL-5 > 100 µM | BT-549 > 100 µM | K562 > 100 µM | SNB-19 > 100 µM | LOX IMVI > 100 µM | HCT-116 > 100 µM | NCI-H226 > 100 µM | NCI-H23 > 100 µM | IGROV-1 > 100 µM | A498 > 100 µM | MOLT-4 12.3 µM | UO-31 > 100 µM | DU-145 > 100 µM | OVCAR-3 > 100 µM | SNB-75 41.9 µM | RXF 393 > 100 µM | NCI/ADR-RES > 100 µM | CAKI-1 > 100 µM | CCRF-CEM 10.8 µM | PC-3 > 100 µM | UACC-257 > 100 µM | KM12 > 100 µM | SR > 100 µM | MDA-MB-231 > 100 µM | SF-539 > 100 µM | TK-10 > 100 µM | MDA-N > 100 µM | SN12C > 100 µM | SK-MEL-28 > 100 µM | RPMI-8226 79.6 µM | HL-60 33.7 µM | Hs-578T > 100 µM | MDA-MB-435 > 100 µM | SF-295 > 100 µM | UACC-62 > 100 µM | HT-29 > 100 µM | HOP-92 21.6 µM | EKVX 2.86 µM | HOP-62 > 100 µM | T47D 99.3 µM | OVCAR-5 > 100 µM | 786-0 > 100 µM | OVCAR-4 > 100 µM | SK-MEL-2 > 100 µM | Malme-3M > 100 µM | A549 > 100 µM | COLO 205 > 100 µM | NCI-H460 > 100 µM | M14 > 100 µM | SF-268 > 100 µM | OVCAR-8 > 100 µM | U-251 > 100 µM | SK-OV-3 > 100 µM | MCF7 > 100 µM | SW-620 > 100 µM | ACHN > 100 µM | NCI-H522 52.5 µM
> 100 µM: HCT-15

— ChEMBL document CHEMBL1201862, “PubChem BioAssay data set” (2004)
